# Earlier results in patent publication US20110313054A1, “BRANCHED COPOLYMERS, COMPOSITION AND USES” (Unilever PLC, priority 2009, published 2011).
# Conditions: in water at 20° C.
row,SMILES,Solubility in water w/w at 20° C.
1,C=C(C)C(=O)OCC(C)O (centres unmarked) [2-Hydroxypropyl methacrylate],2.17 w/w
2,C=C(C)C(=O)OCCO [2-Hydroxyethyl methacrylate],3.00 w/w
3,C=C(C)C(=O)O [Methacrylic acid],Soluble
4,C=CC(=O)OCC(C)O (centres unmarked) [2-Hydroxypropyl acrylate],Soluble
5,C=CC(=O)OCCO [2-Hydroxyethyl acrylate],soluble
